Source: paper PMC4585029, “Agonist and antagonist effects of tobacco-related nitrosamines on human α4β2 nicotinic acetylcholine receptors” (Frontiers in Pharmacology, 2015)
“Also recorded” adds a separate entry of the source. Read-outs that look alike come from different tables or passages of the source.

Tests used:
(α7)5 nAChR = test system: (α7)5 nAChR; parameters: method as in Dani and Bertrand, [2007]; conditions: homopentameric receptors such as (α7)5; ref Dani and Bertrand, [2007]; cited from earlier work
[1] = cited from earlier work
human α4β2 nAChRs = molecular target: T1, human α4β2 nAChRs (Homo sapiens, UniProt P17787+P43681); assay: cell-based; assay type: cell-based; conditions: for voltage dependence of the fractional block at the steady state: NNN 10 μM with 10 μM nicotine, NNK 1 μM with 100 nM nicotine, different Vm; for Imax/Inico: maximal current relative to nicotine, whole-cell; for functional behaviour on α4β2 nAChRs: patch-clamp
T1 construct: expressed in transfected cells
T1 sequence (P43681 29-627 limits assumed): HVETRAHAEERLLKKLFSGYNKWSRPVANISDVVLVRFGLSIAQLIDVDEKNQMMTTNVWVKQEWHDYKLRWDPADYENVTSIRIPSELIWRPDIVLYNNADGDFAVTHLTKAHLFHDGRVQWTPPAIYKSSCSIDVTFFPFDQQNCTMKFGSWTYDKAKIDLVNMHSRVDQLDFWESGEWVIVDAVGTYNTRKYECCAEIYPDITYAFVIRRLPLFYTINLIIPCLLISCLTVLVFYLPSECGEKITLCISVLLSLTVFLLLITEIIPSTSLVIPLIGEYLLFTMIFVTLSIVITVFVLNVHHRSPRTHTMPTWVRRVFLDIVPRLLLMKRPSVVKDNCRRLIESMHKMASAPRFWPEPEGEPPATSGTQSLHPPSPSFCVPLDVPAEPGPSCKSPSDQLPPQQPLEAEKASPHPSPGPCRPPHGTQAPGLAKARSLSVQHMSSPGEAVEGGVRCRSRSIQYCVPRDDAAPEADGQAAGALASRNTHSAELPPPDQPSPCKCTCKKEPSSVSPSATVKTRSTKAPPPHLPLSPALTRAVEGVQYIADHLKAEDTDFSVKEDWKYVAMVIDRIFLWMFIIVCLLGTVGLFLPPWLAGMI
T1 sequence (P17787 26-502): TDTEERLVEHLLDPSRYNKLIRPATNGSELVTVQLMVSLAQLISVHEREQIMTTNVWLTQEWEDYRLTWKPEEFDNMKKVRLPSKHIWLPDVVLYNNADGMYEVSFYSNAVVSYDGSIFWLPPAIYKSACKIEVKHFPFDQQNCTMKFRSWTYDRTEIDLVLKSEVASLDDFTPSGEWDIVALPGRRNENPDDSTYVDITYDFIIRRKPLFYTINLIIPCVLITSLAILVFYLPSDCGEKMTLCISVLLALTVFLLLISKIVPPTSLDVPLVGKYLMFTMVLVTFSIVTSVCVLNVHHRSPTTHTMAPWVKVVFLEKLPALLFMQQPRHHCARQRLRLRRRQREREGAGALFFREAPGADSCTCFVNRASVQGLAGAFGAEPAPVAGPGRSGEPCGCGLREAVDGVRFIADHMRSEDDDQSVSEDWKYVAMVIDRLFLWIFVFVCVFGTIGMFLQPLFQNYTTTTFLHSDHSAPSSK
Procedure: HEK 293 cells stably expressing human α4β2 nAChRs were cultured by standard methods (Di Resta et al., [2010]). In brief, cultures were maintained in Dulbecco's modified Eagle's medium (Hyclone Laboratories), supplemented with 10% fetal calf serum (Hyclone), 4.5 g/l glutamine, […] hygromycin β, and 0.25 μg/ml amphoterycin B. Cells were grown at 37°C and 5% CO2. For patch-clamp experiments, cells were harvested by treatment with trypsin and plated onto 35 mm Petri dishes (Corning Inc.).
Cells were voltage-clamped by using the whole-cell configuration of the patch-clamp method. Currents were registered with an Axopatch 200B amplifier (Molecular Devices), at room temperature (20–22°C). Micropipettes (3–4 MΩ) were pulled from borosilicate capillaries (GMBH) with a P-97 Flaming/Brown Micropipette Puller (Sutter Instrument Co.). The cell capacitance and series resistance (up to about 75%) were always compensated. Currents were low-pass filtered at 2 kHz and acquired on-line at 5–10 kHz with Molecular Devices hardware and software (pClamp 8 and Axoscope 8). After patch rupture, we usually allowed 1–2 min for pipette solution exchange and signal stabilization, before applying our stimuli. Extracellular solutions were applied with an RSC-160 Rapid Solution Changer (BioLogic Science Instruments). The solution is delivered to the cells through borosilicate capillaries connected to Tygon tubes. Seven independent lines are available. […] The perfusing line was totally substituted whenever the drug was changed.
Unless otherwise indicated, chemicals, and drugs were purchased by Sigma-Aldrich Italia Srl. The extracellular solution contained (mM): NaCl 130, KCl 5, CaCl2 2, MgCl2 2, HEPES 10, D-glucose 5 (pH 7.4; adjusted with NaOH). Pipettes contained (mM): K-aspartate 120, NaCl 10, MgCl2 2, CaCl21.3, EGTA-KOH 10, HEPES 10, MgATP 1, (pH 7.3; adjusted with KOH). […] NNK and NNN (20 mM) were dissolved in water and kept refrigerated for no longer than 1 week. […] The final concentrations were obtained by serial dilution.
Data were analyzed with Clampfit 9.2 (Molecular Devices) and OriginPro 9 (OriginLab Co.). Theoretical curves best fitting the data were determined by a nonlinear least-squares method (Levenberg-Marquardt algorithm). For nAChR activation we used both a simple Hill function and the sum of two Hill expressions (Covernton and Connolly, [2000]). The single-term expression was:
The two-terms Hill expression was:
(2) IL/Imax=A/(1+EC50high/[L])^nH1+1-A/(1+EC50low/[L])^nH2
where A is the fraction of receptors in the high-affinity state; EC50high and EC50low are the EC50 values of the components at high and low affinity, respectively; nH1 and nH2 are the corresponding Hill coefficients, and the other symbols are as in Equation (1).
The function used to fit the desensitization data points (Figure 3) was:
(3) ISS/Ipeak=B+1-B/(1+[L]/IC50)^nH
ISS was found by fitting the current decay with a single exponential function and taking the steady state value of this function. A similar function was used to fit the fractional inhibition in Figures 4B, 5B.
(4) y=αNic[Nic]/EC50+αNNK[NNK]/EC50(NNK)/1+[Nic]/EC50+[NNK]/EC50(NNK)

[2] = test system: epibatidine-sensitive nAChRs; parameters: method as in Schuller, [2007]; conditions: SCLC cells, ref Schuller, [2007], read-out: EC50 measured in binding studies; cited from earlier work
α3β4 nAChR = test system: α3β4 nAChR; parameters: method as in Nunes-Alves et al., [2012]; conditions: in the presence of 100 μM nicotine; ref Nunes-Alves et al., [2012]; cited from earlier work
muscle subtype nAChR = test system: muscle subtype nAChR; parameters: method as in Nunes-Alves et al., [2012]; conditions: ref Nunes-Alves et al., [2012]; cited from earlier work
[3] = two-terms Hill fit (Equation 2)

Q: With CN1CCC[C@H]1c1cccnc1 [Nicotine, nicotine, reference compound] as the molecule, how does the EC50 ((α7)5 nAChR) read?
A: The EC50 was […].

Q: What about the average current (human α4β2 nAChRs) of the same molecule?
A: The average current was 89.4 ± 19.4 pA.

Q: What about the “nH of nicotine alone (Figure 4C)” value (human α4β2 nAChRs) of the same molecule?
A: The value was 0.83.

Q: What about the “nH of nicotine in the presence of 1 nM NNN” value (human α4β2 nAChRs) of the same molecule?
A: Its value is 0.92.

Q: What about the “nH of nicotine in the presence of 1 μM NNN” value (human α4β2 nAChRs) of the same molecule?
A: Its value is 1.

Q: And the peak current (human α4β2 nAChRs)?
A: The peak current was 119 ± 24 pA.

Q: With CN(CCCC(=O)c1cccnc1)N=O [NNK, 4-(methylnitrosamine)-1-(3-pyridyl)-1-butanone] as the molecule, how does the EC50 [2] read?
A: The EC50 was ~17 µM.

Q: And the peak current (human α4β2 nAChRs; 10 nM nicotine plus 1 μM NNK, n = 11)?
A: The peak current was 160 ± 30 pA.

Q: What about the average current (human α4β2 nAChRs; 100 nM nicotine plus 100 μM NNK, n = 8) of the same molecule?
A: The average current was 159.1 ± 25.1 pA.

Q: And the “potentiation of the current activated by nicotine” value (human α4β2 nAChRs; 1 μM NNK on 0.01 μM nicotine)?
A: The value was 26%.

Q: What about the “concentration of nicotine at which NNK reversed its effect” value (human α4β2 nAChRs; 1 μM NNK, estimated by fit with Equation 4) of the same molecule?
A: Its value is “around 20 nM”.

Q: What about the “average peak current density” value (human α4β2 nAChRs; 10 μM NNK alone, −80 mV, n = 9) of the same molecule?
A: Its value is 5.75 ± 1.22 pA/pF.

Q: And the “concentration of nicotine at which sign reversal of NNK effect occurs” value (human α4β2 nAChRs; 100 μM NNK)?
A: The value was “approximately 400 nM”.

Q: What about the “potentiation of the current activated by nicotine” value (human α4β2 nAChRs; 100 μM NNK on 100 nM (0.1 μM) nicotine, −80 mV) of the same molecule?
A: Its value is “approximately 80%”.

Q: What about the “measured peak current relative to the value in the presence of 300 μM nicotine” value (human α4β2 nAChRs; 100 μM NNK, −80 mV, n = 13) of the same molecule?
A: Its value is 0.14 ± 0.02.

Q: And the “nH of desensitization curve” value (human α4β2 nAChRs; Equation 3)?
A: Its value is 0.9.

Q: And the inhibition at 100 µM (human α4β2 nAChRs; HEK293, read-out: inhibition of the current elicited by nicotine)?
A: Its inhibition at 100 µM is 40%.

Q: And the “nicotine concentrations whose currents are potentiated by co-applied NNK” value (human α4β2 nAChRs; NNK co-applied with nicotine)?
A: The value was ≤ 100 nM.

Q: What about the “effect on the currents activated by 10 μM nicotine” value (human α4β2 nAChRs; NNK concentrations up to 100 nM) of the same molecule?
A: The value was “no effect”.

Q: And the “voltage dependence of the fractional block at the steady state” value (human α4β2 nAChRs)?
A: Its value is “independent of the applied Vm”.

Q: What about the “nH, Hill coefficient of single-term Hill fit (Equation 1)” value (human α4β2 nAChRs; activation by agonist alone, −80 mV) of the same molecule?
A: The value was 0.44.

Q: What about the “nH of inhibition curve” value (human α4β2 nAChRs; currents activated by 10 μM nicotine, Equation 3) of the same molecule?
A: The value was 0.95.

Q: What about the “fit parameters αNIC / αNNK of Equation 4” value (human α4β2 nAChRs; fit of data with 1 μM NNK plus nicotine (Figure 5C)) of the same molecule?
A: The value was 5 µM.

Q: And the “estimated maximal current activated by NNK, % of the current elicited by 300 μM nicotine” value (human α4β2 nAChRs; from Equation 1 fit, −80 mV)?
A: Its value is “approximately 16%”.

Q: What about the Imax/Inico (human α4β2 nAChRs; −80 mV) of the same molecule?
A: Its Imax/Inico is 0.16.

Q: What about the “functional behaviour on α4β2 nAChRs” value (human α4β2 nAChRs) of the same molecule?
A: The value was “partial agonist”.

Q: And the IC50 (human α4β2 nAChRs; read-out: Desensitization IC50, fractional steady state current ISS/Ipeak vs agonist concentration, Equation 3)?
A: Its IC50 is 1.7 µM.

Q: And the EC50 (human α4β2 nAChRs; read-out: EC50 (single-term Hill, Equation 1), peak whole-cell currents at −80 mV, activation by agonist alone)?
A: The EC50 was 16.7 µM.

Q: And the EC50 (human α4β2 nAChRs; read-out: EC50high, high-affinity component, two-terms Hill fit (Equation 2))?
A: The EC50 was 0.035 µM.

Q: What about the EC50 (human α4β2 nAChRs; read-out: EC50low, low-affinity component, two-terms Hill fit (Equation 2)) of the same molecule?
A: Its EC50 is 12.8 µM.

Q: What about the IC50 (human α4β2 nAChRs; read-out: Inhibition IC50, with 10 μM nicotine, steady state fractional current, −80 mV) of the same molecule?
A: Its IC50 is > 100 µM.

Q: What about the “Hill coefficient of the high-affinity component (nH1 in Table 1)” value (human α4β2 nAChRs; [3]) of the same molecule?
A: The value was 1.2.

Q: What about the “Hill coefficient of the low-affinity component (nH2 in Table 1)” value (human α4β2 nAChRs; [3]) of the same molecule?
A: The value was 1.4.

Q: And the “NNK concentrations that elicited inward currents” value (human α4β2 nAChRs; −80 mV, NNK alone)?
A: The value was “higher than 10 nM”.

Q: With O=NN1CCC[C@H]1c1cccnc1 [NNN, N'-nitrosonornicotine] as the molecule, how does the IC50 (α3β4 nAChR) read?
A: The IC50 was 1140 µM.

Q: And the “concentrations normally encountered in smokers' plasma” value ([1]; ref Schuller, [2007])?
A: The value was < 0.1 nM.

Q: What about the “effect on the muscle subtype” value (muscle subtype nAChR) of the same molecule?
A: Its value is “little effect”.

Q: What about the “voltage dependence of the fractional block at the steady state” value (human α4β2 nAChRs) of the same molecule?
A: Its value is “independent of the applied Vm”.

Q: And the Imax/Inico (human α4β2 nAChRs; −80 mV)?
A: Its Imax/Inico is 0.

Q: And the “functional behaviour on α4β2 nAChRs” value (human α4β2 nAChRs)?
A: Its value is “pure inhibitor”.

Q: What about the IC50 (human α4β2 nAChRs; read-out: Inhibition IC50) of the same molecule?
A: Its IC50 is ~0.001 µM.

Q: What about the IC50 (human α4β2 nAChRs; with 10 μM nicotine, steady state fractional current, −80 mV, read-out: Inhibition IC50) of the same molecule?
A: The IC50 was 0.00021 µM.

Q: What about the “nAChR activation (whole-cell current) by the compound alone” value (human α4β2 nAChRs; −80 mV, NNN 10 μM and up to 100 μM) of the same molecule?
A: Its value is “never produced nAChR activation; also recorded: did not elicit any whole-cell current”.
